Legend:
[1] = test system: transplanted tumor of human glioma cell U251; assay: U251 transplanted tumor in nude mice; conditions: for Tumor Volume (mm3) (d 1): d1
Description: (§1) U251 cells in a logarithmic growth phase were taken and subjected to a trypan blue exclusion experiment showing that the cell viability was more than 95%, then the cells were subjected to trypsinization, centrifugation, and supernatant removal. Then cell concentration was adjusted to 1×10^7/ml with matrigel, then each nude mouse was inoculated subcutaneously with 0.2 ml of cells at its right armpit and recorded as the first day of inoculation. When the tumor grows to be greater than or equal to 100 mm^3, the mice were randomly divided into 11 groups with 6 mice in each group: a model group, a cyclophosphamide group, isovaleryl spiramycin I groups with doses of 25, 50 and 100 mg/kg, isovaleryl spiramycin II groups with doses of 25, 50 and 100 mg/kg, and isovaleryl spiramycin III groups with doses of 25, 50 and 100 mg/kg. Each group was continuously administered intragastrically for 30 days with a dose of 20 ml/kg. The mice were sacrificed the next day after drug withdrawal and the indicators were tested. The long diameter and short diameter of the tumor, and the body weight of each mouse were recorded every 3 days from drug administration to nude mouse sacrifice.
(§2) The body weight of the nude mice and the long diameter (a) and short diameter (b) of the transplanted tumor were measured every 3 days, and the tumor volume (v), relative tumor volume (RTV) and relative tumor proliferation rate (T/C) are calculated respectively according to the following formulas, wherein V=a×b^2/2; RTV=V/V0 (V0 is the tumor volume before administration, V is the tumor volume before sacrifice), and T/C (%)=treatment group RTV/model control group RTV×100%.
(§3) Each mouse was weighed and sacrificed. After the tumor was completely stripped off from the body of the mouse, the non-tumor tissues such as blood stains and fat were removed to weigh the tumor and calculate the tumor growth inhibition rate. The average tumor weight of each group of mice is used as an indicator of efficacy. Tumor growth inhibition rate (%)=(1−the average tumor weight of the treatment group/the average tumor weight of the model group)×100%.

[2] = test system: transplanted tumor of HT-29 cells; assay: HT-29 transplanted tumor in nude mice; conditions: for Inhibition Rate (%) / Tumor Weight: HT-29 nude mice; for Tumor Volume (mm3) (d30): d 30
Description: as §1, with “Then” for “U251 cells in a logarithmic growth phase were taken and subjected to a trypan blue exclusion experiment showing that the cell viability was more than 95%, then the cells were subjected to trypsinization, centrifugation, and supernatant removal. Then”, “group:” for “group: a model group, a cyclophosphamide group,”
as §2, §3

[3] = U251, high dose (100 mg/kg in method) i.g. 30 days
[4] = U251, low dose (25 mg/kg in method) i.g. 30 days
[5] = U251, medium dose (50 mg/kg in method) i.g. 30 days
[6] = HT-29, high dose (100 mg/kg in method) i.g. 30 days
[7] = HT-29, low dose (25 mg/kg in method) i.g. 30 days
[8] = HT-29, medium dose (50 mg/kg in method) i.g. 30 days

SMILES: CO[C@@H]1[C@@H](O[C@@H]2O[C@H](C)[C@@H](O[C@H]3C[C@@](C)(O)[C@@H](OC(=O)CC(C)C)[C@H](C)O3)[C@H](N(C)C)[C@H]2O)[C@@H](CC=O)C[C@@H](C)[C@@H](O[C@H]2CC[C@H](N(C)C)[C@@H](C)O2)/C=C/C=C/C[C@@H](C)OC(=O)C[C@H]1O [Isovaleryl spiramycin I, isovaleryl spiramycin I]
- Relative Tumor Proliferation Rate (T/C) [1, 3]: 25.80%
- tumor growth inhibition rate [1, 3]: 69.21%
- Relative Tumor Proliferation Rate (T/C) [1, 4]: 76.40%
- tumor growth inhibition rate [1, 4]: 30.94%
- tumor volume and relative tumor volume compared with the model group ([1]; U251, low, medium and high doses, P<0.05): significantly lower
- Relative Tumor Proliferation Rate (T/C) [1, 5]: 44.54%
- tumor growth inhibition rate [1, 5]: 44.53%
- Inhibition Rate (%) ([1]; U251 nude mice, 25 mg/kg): 30.94%
- Relative Tumor Proliferation Rate (T/C) ([1]; U251 nude mice, 25 mg/kg): 76.40%
- Relative Tumor Volume (RTV) ([1]; U251 nude mice, 25 mg/kg): 12.69 ± 1.08
- Tumor Weight ([1]; U251 nude mice, 25 mg/kg): 0.96 ± 0.08 g
- Tumor Volume (mm3) (d 1) ([1]; U251 nude mice, 25 mg/kg): 122.81 ± 10.35 mm3
- Tumor Volume (mm3) (d30) ([1]; U251 nude mice, 25 mg/kg): 1550.33 ± 72.99 mm3
- Inhibition Rate (%) ([1]; U251 nude mice, 50 mg/kg): 44.53%
- Relative Tumor Proliferation Rate (T/C) ([1]; U251 nude mice, 50 mg/kg): 44.54%
- Relative Tumor Volume (RTV) ([1]; U251 nude mice, 50 mg/kg): 10.67 ± 1.09
- Tumor Weight ([1]; U251 nude mice, 50 mg/kg): 0.77 ± 0.09 g
- Tumor Volume (mm3) (d 1) ([1]; U251 nude mice, 50 mg/kg): 124.39 ± 10.31 mm3
- Tumor Volume (mm3) (d30) ([1]; U251 nude mice, 50 mg/kg): 930.42 ± 204.72 mm3
- Inhibition Rate (%) ([1]; U251 nude mice, 100 mg/kg): 69.21%
- Relative Tumor Proliferation Rate (T/C) ([1]; U251 nude mice, 100 mg/kg): 25.80%
- Relative Tumor Volume (RTV) ([1]; U251 nude mice, 100 mg/kg): 10.05 ± 0.71
- Tumor Weight ([1]; U251 nude mice, 100 mg/kg): 0.43 ± 0.01 g
- Tumor Volume (mm3) (d 1) ([1]; U251 nude mice, 100 mg/kg): 124.88 ± 6.57 mm3
- Tumor Volume (mm3) (d30) ([1]; U251 nude mice, 100 mg/kg): 537.02 ± 93.66 mm3
- mouse weight compared with the model group ([1]; mouse, in vivo): no significant changes
- Body Weight (g) (d1) ([1]; mouse, in vivo, 25 mg/kg): 21.03 ± 0.55 g
- Body Weight (g) (d30) ([1]; mouse, in vivo, 25 mg/kg): 21.09 ± 0.53 g
- Body Weight (g) (d1) ([1]; mouse, in vivo, 50 mg/kg): 20.78 ± 0.66 g
- Body Weight (g) (d30) ([1]; mouse, in vivo, 50 mg/kg): 21.08 ± 0.54 g
- Body Weight (g) (d1) ([1]; mouse, in vivo, 100 mg/kg): 21.10 ± 0.35 g
- Body Weight (g) (d30) ([1]; mouse, in vivo, 100 mg/kg): 20.86 ± 0.66 g
- Relative Tumor Proliferation Rate (T/C) [2, 6]: 29.11%
- tumor growth inhibition rate [2, 6]: 70.14%
- Relative Tumor Proliferation Rate (T/C) [2, 7]: 81.60%
- tumor growth inhibition rate [2, 7]: 16.10%
- tumor volume and relative tumor volume compared with the model group ([2]; HT-29, low, medium and high doses, P<0.05): significantly lower
- Relative Tumor Proliferation Rate (T/C) [2, 8]: 49.22%
- tumor growth inhibition rate [2, 8]: 49.72%
- Inhibition Rate (%) ([2]; 25 mg/kg): 16.10%
- Tumor Weight ([2]; 25 mg/kg): 1.97 ± 0.31 g
- Inhibition Rate (%) ([2]; 50 mg/kg): 49.72%
- Tumor Weight ([2]; 50 mg/kg): 1.18 ± 0.34 g
- Inhibition Rate (%) ([2]; 100 mg/kg): 70.14%
- Tumor Weight ([2]; 100 mg/kg): 0.70 ± 0.29 g
- Relative Tumor Proliferation Rate (T/C) ([2]; dose 25 mg/kg): 81.60%
- Relative Tumor Volume (RTV) ([2]; dose 25 mg/kg): 11.76 ± 4.03
- Tumor Volume (mm3) (d 1) ([2]; dose 25 mg/kg): 162.77 ± 38.95 mm3
- Tumor Volume (mm3) (d30) ([2]; dose 25 mg/kg): 1803.98 ± 271.55 mm3
- Relative Tumor Proliferation Rate (T/C) ([2]; dose 50 mg/kg): 49.22%
- Relative Tumor Volume (RTV) ([2]; dose 50 mg/kg): 7.09 ± 1.47
- Tumor Volume (mm3) (d 1) ([2]; dose 50 mg/kg): 157.41 ± 37.31 mm3
- Tumor Volume (mm3) (d30) ([2]; dose 50 mg/kg): 1109.16 ± 320.27 mm3
- Relative Tumor Proliferation Rate (T/C) ([2]; dose 100 mg/kg): 29.11%
- Relative Tumor Volume (RTV) ([2]; dose 100 mg/kg): 4.19 ± 2.23
- Tumor Volume (mm3) (d 1) ([2]; dose 100 mg/kg): 169.25 ± 35.39 mm3
- Tumor Volume (mm3) (d30) ([2]; dose 100 mg/kg): 648.93 ± 198.53 mm3
- mouse weight compared with the model group ([2]; mouse, in vivo): no significant changes
- Body Weight (g) (d1) ([2]; mouse, in vivo, 25 mg/kg): 21.41 ± 1.41 g
- Body Weight (g) (d30) ([2]; mouse, in vivo, 25 mg/kg): 20.98 ± 0.99 g
- Body Weight (g) (d1) ([2]; mouse, in vivo, 50 mg/kg): 21.31 ± 1.53 g
- Body Weight (g) (d30) ([2]; mouse, in vivo, 50 mg/kg): 20.56 ± 1.09 g
- Body Weight (g) (d1) ([2]; mouse, in vivo, 100 mg/kg): 20.77 ± 1.13 g
- Body Weight (g) (d30) ([2]; mouse, in vivo, 100 mg/kg): 21.19 ± 1.26 g

From patent publication US20200163984A1, “USE OF ISOVALERYL SPIRAMYCIN I, II AND/OR III IN MANUFACTURING MEDICAMENT FOR TREATING AND/OR PREVENTING TUMOR, AND MEDICAMENT” (SHENYANG FUYANG PHARMACEUTICAL TECHNOLOGY CO., LTD., priority 2017, published 2020)
